Data taken from ChEMBL document CHEMBL1201862, “PubChem BioAssay data set” (2004).
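Each compound was tested at five concentrations against cells in 96-well plates for 48 hours. The concentration for 50% growth inhibition is given as GI50.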 Calls of active or inactive are those of the source. Rule as the data show it: active = GI50 up to about 1.1 µM and inactive = higher.

Tests used:
Experiment in all cases: NCI anticancer screen, dose series, 48 h
DLD-1 = test system: DLD-1
EKVX = test system: EKVX
HL-60 = test system: HL-60
HOP-92 = test system: HOP-92
HT-29 = test system: HT-29
M14 = test system: M14
NCI-H226 = test system: NCI-H226
NCI-H460 = test system: NCI-H460
SK-MEL-28 = test system: SK-MEL-28
SK-MEL-5 = test system: SK-MEL-5
SR = test system: SR
SW-620 = test system: SW-620
MOLT-4 = test system: MOLT-4
SK-MEL-2 = test system: SK-MEL-2
BT-549 = test system: BT-549
Hs-578T = test system: Hs-578T
MCF7 = test system: MCF7
MDA-MB-435 = test system: MDA-MB-435
MDA-N = test system: MDA-N
T47D = test system: T47D

SMILES	GI50 (DLD-1)	GI50 (EKVX)	GI50 (HL-60)	GI50 (HOP-92)	GI50 (HT-29)	GI50 (M14)	GI50 (NCI-H226)	GI50 (NCI-H460)	GI50 (SK-MEL-28)	GI50 (SK-MEL-5)	GI50 (SR)	GI50 (SW-620)	GI50 (MOLT-4)	GI50 (SK-MEL-2)	GI50 (BT-549)	GI50 (Hs-578T)	GI50 (MCF7)	GI50 (MDA-MB-435)	GI50 (MDA-N)	GI50 (T47D)
c1ccc([P+](CCC[P+](c2ccccc2)(c2ccccc2)c2ccccc2)(c2ccccc2)c2ccccc2)cc1	56.6 µM (inactive)	> 100 µM (inactive)	10.7 µM (inactive)	20.1 µM (inactive)	34.4 µM (inactive)	71.9 µM (inactive)	23.6 µM (inactive)	20 µM (inactive)	33.5 µM (inactive)	20.2 µM (inactive)	45 µM (inactive)	36.7 µM (inactive)	–	–	–	–	–	–	–	–
COc1ccc(CC2(Cc3ccc(OC)cc3)CCOC2=O)cc1	> 100 µM (inactive)	44.2 µM (inactive)	> 100 µM (inactive)	40.6 µM (inactive)	> 100 µM (inactive)	> 100 µM (inactive)	> 100 µM (inactive)	> 100 µM (inactive)	> 100 µM (inactive)	–	> 100 µM (inactive)	> 100 µM (inactive)	> 100 µM (inactive)	94.8 µM (inactive)	–	–	–	–	–	–
CCOC(=O)N1CCN(C=S)CC1	> 100 µM (inactive)	> 100 µM (inactive)	> 100 µM (inactive)	–	> 100 µM (inactive)	> 100 µM (inactive)	–	> 100 µM (inactive)	> 100 µM (inactive)	> 100 µM (inactive)	> 100 µM (inactive)	> 100 µM (inactive)	> 100 µM (inactive)	> 100 µM (inactive)	–	–	–	–	–	–
O=S(=O)(c1ccccc1)C1(C2(S(=O)(=O)c3ccccc3)CCN=N2)CCN=N1 (centres undefined)	> 100 µM (inactive)	> 100 µM (inactive)	> 100 µM (inactive)	–	> 100 µM (inactive)	> 100 µM (inactive)	> 100 µM (inactive)	> 100 µM (inactive)	> 100 µM (inactive)	–	> 100 µM (inactive)	> 100 µM (inactive)	> 100 µM (inactive)	> 100 µM (inactive)	–	–	–	–	–	–
O=C(/C=C/c1ccccc1Cl)c1ccc(Cl)cc1Cl	17.3 µM (inactive)	18.9 µM (inactive)	16.5 µM (inactive)	21 µM (inactive)	14.3 µM (inactive)	18.1 µM (inactive)	15.7 µM (inactive)	17.3 µM (inactive)	11.6 µM (inactive)	15.3 µM (inactive)	–	1.74 µM (inactive)	3.91 µM (inactive)	–	–	–	–	–	–	–
NC(=O)C(c1ccccc1)N1OC2C(=O)N(c3cccc4ccccc34)C(=O)C2C1c1c2ccccc2c(Cl)c2ccccc12 (centres undefined)	–	11.6 µM (inactive)	2.44 µM (inactive)	9.27 µM (inactive)	7.53 µM (inactive)	7.03 µM (inactive)	6.25 µM (inactive)	9.31 µM (inactive)	12.8 µM (inactive)	5.06 µM (inactive)	1.21 µM (inactive)	3.15 µM (inactive)	1.44 µM (inactive)	8.69 µM (inactive)	9.42 µM (inactive)	18.6 µM (inactive)	2.85 µM (inactive)	6.92 µM (inactive)	2.38 µM (inactive)	8.93 µM (inactive)
Cc1cc2c(C)nn(Cc3ccccc3)c2c(C(N)=O)c1C	> 100 µM (inactive)	> 100 µM (inactive)	–	> 100 µM (inactive)	> 100 µM (inactive)	> 100 µM (inactive)	–	> 100 µM (inactive)	> 100 µM (inactive)	> 100 µM (inactive)	–	> 100 µM (inactive)	62.1 µM (inactive)	> 100 µM (inactive)	–	–	–	–	–	–
Nc1nc(Cl)cc(NCC2(CO)CCCCC2)n1	–	67 µM (inactive)	> 100 µM (inactive)	56.9 µM (inactive)	> 100 µM (inactive)	> 100 µM (inactive)	> 100 µM (inactive)	> 100 µM (inactive)	> 100 µM (inactive)	44 µM (inactive)	68.2 µM (inactive)	> 100 µM (inactive)	59.4 µM (inactive)	> 100 µM (inactive)	> 100 µM (inactive)	> 100 µM (inactive)	97.9 µM (inactive)	> 100 µM (inactive)	> 100 µM (inactive)	38.5 µM (inactive)
Oc1nc2nnc(COc3ccc(Cl)cc3Cl)n2nc1Cc1ccccc1	–	> 100 µM (inactive)	49.2 µM (inactive)	32.7 µM (inactive)	> 100 µM (inactive)	> 100 µM (inactive)	25.1 µM (inactive)	84.5 µM (inactive)	> 100 µM (inactive)	> 100 µM (inactive)	36.7 µM (inactive)	> 100 µM (inactive)	> 100 µM (inactive)	> 100 µM (inactive)	> 100 µM (inactive)	51.6 µM (inactive)	> 100 µM (inactive)	> 100 µM (inactive)	> 100 µM (inactive)	37.8 µM (inactive)
CCOC(=O)/C(C(N)=O)=C(O)/C(O)=C(\Br)C(=O)c1ccccc1	–	23.9 µM (inactive)	0.0622 µM (active)	19.9 µM (inactive)	25.9 µM (inactive)	14.6 µM (inactive)	19.5 µM (inactive)	24.8 µM (inactive)	17.9 µM (inactive)	16.6 µM (inactive)	3.68 µM (inactive)	9.66 µM (inactive)	2.99 µM (inactive)	18.9 µM (inactive)	18.6 µM (inactive)	20.4 µM (inactive)	17.7 µM (inactive)	16.9 µM (inactive)	17.5 µM (inactive)	23.1 µM (inactive)
Cc1cc(C)nc(NS(=O)(=O)c2ccc(Nc3c4ccc(Cl)cc4nc4c(C(=O)Nc5ccc(S(=O)(=O)N=C(N)N)cc5)cccc34)cc2)n1	> 100 µM (inactive)	> 100 µM (inactive)	–	–	> 100 µM (inactive)	> 100 µM (inactive)	–	> 100 µM (inactive)	77.6 µM (inactive)	–	–	–	29 µM (inactive)	–	–	–	–	–	–	–
COc1ccccc1NC(=O)C1=C(C)NC(C)=C(C(=O)Nc2ccccc2OC)C1c1cccc2ccccc12	38.7 µM (inactive)	> 100 µM (inactive)	29.9 µM (inactive)	1.38 µM (inactive)	82.8 µM (inactive)	> 100 µM (inactive)	50.7 µM (inactive)	20.1 µM (inactive)	62.7 µM (inactive)	34.4 µM (inactive)	–	> 100 µM (inactive)	10.6 µM (inactive)	> 100 µM (inactive)	–	–	–	–	–	–
CC(C)(C)c1cc(C(OCCl)(C(F)(F)F)C(F)(F)F)c2c(c1)C(C(F)(F)F)(C(F)(F)F)OC21c2ccccc2C(=O)c2ccccc21	> 100 µM (inactive)	> 100 µM (inactive)	–	< 0.01 µM (active)	> 100 µM (inactive)	> 100 µM (inactive)	> 100 µM (inactive)	> 100 µM (inactive)	> 100 µM (inactive)	> 100 µM (inactive)	> 100 µM (inactive)	> 100 µM (inactive)	> 100 µM (inactive)	> 100 µM (inactive)	–	–	–	–	–	–
CCO/C(CCn1[nH]c(=O)c(Cl)c(Cl)c1=O)=N\NC(=O)C(=O)NN	> 100 µM (inactive)	> 100 µM (inactive)	> 100 µM (inactive)	–	> 100 µM (inactive)	> 100 µM (inactive)	> 100 µM (inactive)	> 100 µM (inactive)	> 100 µM (inactive)	> 100 µM (inactive)	–	> 100 µM (inactive)	> 100 µM (inactive)	> 100 µM (inactive)	–	–	–	–	–	–
C[N+](C)(C)CC(=O)N/N=C(/Cc1nc2c3c(ccc2nc1O)C(=O)c1ccccc1C3=O)C(=O)Nc1ccc(Cl)c(Cl)c1	17.9 µM (inactive)	13.1 µM (inactive)	8.15 µM (inactive)	29.6 µM (inactive)	> 100 µM (inactive)	81.1 µM (inactive)	–	40.7 µM (inactive)	> 100 µM (inactive)	36.6 µM (inactive)	16 µM (inactive)	35.2 µM (inactive)	19.9 µM (inactive)	91.2 µM (inactive)	–	–	–	–	–	–
C#CCNC(=O)ON1C(=O)CCC1=O	> 100 µM (inactive)	> 100 µM (inactive)	> 100 µM (inactive)	–	> 100 µM (inactive)	–	–	> 100 µM (inactive)	> 100 µM (inactive)	–	–	> 100 µM (inactive)	> 100 µM (inactive)	> 100 µM (inactive)	–	–	–	–	–	–
Cn1c(=O)oc2cc(C3CCC(=O)N3Cc3ccc(Cl)cc3)ccc21 (centres undefined)	92 µM (inactive)	> 100 µM (inactive)	> 100 µM (inactive)	–	> 100 µM (inactive)	> 100 µM (inactive)	> 100 µM (inactive)	> 100 µM (inactive)	> 100 µM (inactive)	> 100 µM (inactive)	> 100 µM (inactive)	> 100 µM (inactive)	> 100 µM (inactive)	> 100 µM (inactive)	–	–	–	–	–	–
COc1cc2c(cc1OC)NC(=O)NC(Cc1ccc3c(c1)OCO3)CC2 (centres undefined)	> 100 µM (inactive)	> 100 µM (inactive)	> 100 µM (inactive)	30.2 µM (inactive)	–	> 100 µM (inactive)	–	> 100 µM (inactive)	> 100 µM (inactive)	> 100 µM (inactive)	–	> 100 µM (inactive)	> 100 µM (inactive)	> 100 µM (inactive)	–	–	–	–	–	–
c1ccc(CNc2ccc3[nH]c4cnccc4c3c2)cc1	16.6 µM (inactive)	19 µM (inactive)	11 µM (inactive)	15.6 µM (inactive)	17.7 µM (inactive)	18 µM (inactive)	19.1 µM (inactive)	17.9 µM (inactive)	13.6 µM (inactive)	15.2 µM (inactive)	–	19.9 µM (inactive)	14 µM (inactive)	17.7 µM (inactive)	–	–	–	–	–	–
[N-]=[N+]=N[C@H]1C[C@@H](CO)O[C@H]1n1cnc2c(N)ncnc21	> 100 µM (inactive)	57.4 µM (inactive)	> 100 µM (inactive)	> 100 µM (inactive)	> 100 µM (inactive)	> 100 µM (inactive)	> 100 µM (inactive)	> 100 µM (inactive)	> 100 µM (inactive)	> 100 µM (inactive)	–	> 100 µM (inactive)	–	> 100 µM (inactive)	–	–	–	–	–	–
